The values below come from patent EP4635969A1, “NOVEL GLUCOCORTICOID, METHOD FOR PREPARING SAME, AND USE THEREOF” (Tianjin Pharmaceutical Biotechnology Co., Ltd., priority 2022, dated 2024).

Data set [1] has as its target T1, mineralocorticoid receptor (MR) (Homo sapiens, UniProt P08235).
T1 sequence (P08235 726-984): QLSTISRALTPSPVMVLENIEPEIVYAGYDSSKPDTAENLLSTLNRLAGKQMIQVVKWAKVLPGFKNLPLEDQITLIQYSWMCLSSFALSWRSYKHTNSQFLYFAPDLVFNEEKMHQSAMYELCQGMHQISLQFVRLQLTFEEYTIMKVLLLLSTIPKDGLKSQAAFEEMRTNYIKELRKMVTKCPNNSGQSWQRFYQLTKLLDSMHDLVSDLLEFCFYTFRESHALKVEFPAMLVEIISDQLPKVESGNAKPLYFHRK
The data set can be described thus: Assay for agonist activity on mineralocorticoid receptor (luciferase reporter, HEK293 cells transfected with pBIND-MR plasmid). In kind it is cell-based. Conditions: for target selectivity: MR/GR and PR/GR, same experimental conditions. The procedure, abridged:
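HEK293 cells transiently transfected with pBIND-MR or pBIND-PR, seeded in phenol red-free DMEM with 5% charcoal-stripped serum. Compounds tested as 12-point 4-fold dilutions from 50 µM in duplicate, 0.1% DMSO blank. Luciferase luminescence read, EC50 by nonlinear fit.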
For orientation: In a reporter assay the amount or activity of a reporter protein is the signal.

Data set [2] is described as follows: Stability in animal lung tissue homogenate, skin tissue homogenate and aqueous humor. In kind it is in vitro ADME.
The target in data set [3] is T2, glucocorticoid receptor (GR) (Homo sapiens, UniProt P04150).
T2 sequence (P04150 521-777): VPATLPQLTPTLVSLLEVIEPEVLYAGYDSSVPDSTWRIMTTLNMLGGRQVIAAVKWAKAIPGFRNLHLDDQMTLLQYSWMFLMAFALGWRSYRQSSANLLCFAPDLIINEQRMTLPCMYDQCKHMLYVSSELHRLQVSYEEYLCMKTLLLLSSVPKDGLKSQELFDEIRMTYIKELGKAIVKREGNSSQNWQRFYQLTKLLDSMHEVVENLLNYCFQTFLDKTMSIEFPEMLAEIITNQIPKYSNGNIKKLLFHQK
The data set can be described thus: Assay for agonist activity on glucocorticoid receptor (luciferase reporter, HEK293 cells transfected with pBIND-GR plasmid). In kind it is cell-based. Put shortly: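 Readout is luciferase luminescence, with EC50 derived by nonlinear fitting. Compounds ran at 10 concentrations (4-fold steps, top 10 µM, duplicate wells) on pBIND-GR-transfected HEK293 cells in phenol red-free DMEM plus 5% charcoal-stripped serum; 0.1% DMSO served as blank.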

Data set [4] can be described thus: Determination of stability in plasma in vitro, human plasma (LC-MS/MS). In kind it is in vitro ADME. The note with it: same experimental conditions (human and mouse plasma). The procedure, abridged:
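Compound at 1 µM final in human or mouse plasma (N = 2) at 37 °C; aliquots taken at 0 and preset time points into ice-cold precipitant with internal standard. Remaining compound measured semi-quantitatively by LC-MS/MS as analyte/internal-standard peak-area ratio.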

Setting [5] is: GR agonist EC50 (nM), HEK293 cells transfected with pBIND-GR, luciferase signal.

SMILES strings stand for the structures. Some results are limits rather than exact numbers.

As a reminder, the EC50 is the concentration at which the effect is half-maximal. Low readings indicate higher potency in that assay, high ones lower potency in that assay. In the case of `C[C@]12C=CC(=O)C=C1CC[C@H]1[C@@H]3C[C@H]4OC(c5ccc(CSC6CCOC6=O)nc5)O[C@@]4(C(=O)CO)[C@@]3(C)C[C@H](O)[C@@]12F` (stereo partly drawn) [Compound 47, (6aS,6bR,7S,8aS,8bS,11aR,12aS,12bS)-6b-Fluoro-7-hydroxy-8b-(2-hydroxyacetyl)-6a,8a-dimethyl-10-(6-(((2-oxotetrahydrofuran-3-yl)thio)methyl)pyridin-3-yl)-1,2,6a,6b,7,8,8a,8b,11a,12,12a,12 b-dodecahydro-4H-naphtho[2',1':4,5]indeno[1,2-d][1,3]dioxol-4-one], the EC50 in data set [1] was over 50000 nM; in data set [3] (setting [5]) it was 0.34 nM; in data set [3] (Nuclear receptor enzyme activity (nM) GR, EC50 of agonist activity, HEK293 reporter cells), 0.34 nM. The “Target selectivity MR/GR” value in data set [1] (ratio of EC50 values) was > 1.5×10^5. For the same compound, the “stability in animal lung tissue homogenate, skin tissue homogenate, and aqueous humor” value (“stability … and aqueous humor” below) in data set [2] is recorded as “relatively stable”. The plasma instability result in data set [4] was “exhibited the characteristic of plasma instability”.
Consider `C[C@]12C=CC(=O)C=C1CC[C@H]1[C@@H]3C[C@H]4OC(c5ccc(CSC6CCOC6=O)nc5)O[C@@]4(C(=O)CO)[C@@]3(C)C[C@H](O)[C@@]12Cl` (stereo partly drawn) [Compound 48, (6aS,6bR,7S,8aS,8bS,11aR,12aS,12bS)-6b-Chloro-7-hydroxy-8b-(2-hydroxyacetyl)-6a,8a-dimethyl-10-(6-(((2-oxotetrahydrofuran-3-yl)thio)methyl)pyridin-3-yl)-1,2,6a,6b,7,8,8a,8b,11a,12,12a,12 b-dodecahydro-4H-naphtho[2',1':4,5]indeno[1,2-d][1,3]dioxol-4-one], for which, in data set [1], the target selectivity entry was “target selectivity comparable to that of compound 23”. In addition, the “stability … and aqueous humor” value in data set [2] was “relatively stable”. In data set [3] (setting [5]), this compound had a half-maximal effective concentration (EC50) of 0.37 nM. For the same compound, the plasma instability result in data set [4] was “exhibited the characteristic of plasma instability”.
For `C[C@]12C=CC(=O)C=C1CC[C@H]1[C@@H]3C[C@H]4OC(c5ccc(CSC6CCOC6=O)cn5)O[C@@]4(C(=O)CO)[C@@]3(C)C[C@H](O)[C@@]12Cl` (stereo partly drawn) [Compound 51, (6aS,6bR,7S,8aS,8bS,11aR,12aS,12bS)-6b-Chloro-7-hydroxy-8b-(2-hydroxyacetyl)-6a,8a-dimethyl-10-(5-(((2-oxotetrahydrofuran-3-yl)thio)methyl)pyridin-2-yl)-1,2,6a,6b,7,8,8a,8b,11a,12,12a,12 b-dodecahydro-4H-naphtho[2',1':4,5]indeno[1,2-d][1,3]dioxol-4-one], the target selectivity entry in data set [1] is “target selectivity comparable to that of compound 23”. In addition, the “stability … and aqueous humor” value in data set [2] is recorded as “relatively stable”. It took 0.82 nM to reach a half-maximal effect in data set [3] (setting [5]) (EC50). Also, the plasma instability entry in data set [4] was “exhibited the characteristic of plasma instability”.
